The values that follow are results of earlier work, collected in patent US20090253744A1, “Acylated piperidine derivatives as melanocortin-4 receptor modulators” (priority 2006, published 2009).

Series [1] relates to males with psychogenic erectile dysfunction. The settings on record: injected intramuscularly or subcutaneously.
For another series, the system named is erectile dysfunction. Particulars: in vivo.

For “Ac-Nle-c[Asp-His-DPhe-Arg-Trp-Lys]-NH2 [MT-II]”, the response rate in series [1] is reported as 75%. For `CCCc1nn(C)c2c(=O)[nH]c(-c3cc(S(=O)(=O)N4CCN(C)CC4)ccc3OCC)nc12` [Sildenafil], the “effective in % of patients” value in the series on erectile dysfunction is on record as “about 70%”.
